Assay results as given in patent publication US7179792B2, “Combination product of a 1,4-benzothiepine 1,1-dioxide compound with at least one other active ingredient and the use of the product” (Sanofi-Aventis Deulschland GmbH, priority 2001, dated 2007).

Test system: Male Syrian hamsters (Mesocricetus auratus)
Test: Plasma lipid levels in hamsters fed 0.1% cholesterol, oral treatment for 10 days
Type: in vivo
Details: feed + 0.1% CH; for Plasma Cholesterol % / Plasma Triglycerides %: Cholesterol ctr. = 100; for Plasma Cholesterol / Plasma LDL / Plasma Triglycerides: plasma day 10
Method: The synergistic activity of the combination product of a compound of formula I with the other active ingredient was tested in an animal experiment. For this purpose, compound V1 from the compound of formula I was tested: Hamsters were used for the biological testing of the combination product of the invention. Male Syrian hamsters (Mesocricetus auratus) from 8 to 10 weeks of age were used for the experiment. The animals received a standard feed (Teklad 8604M) supplemented with 0.1% cholesterol. An additional normal control group received only standard feed. The test substances were administered orally by gavage once a day on 10 consecutive days, and the control group was treated with the vehicle. Feces were collected on days 5 and 6 of the experiment for bile acid analysis. Retroorbital blood was taken from the animals on day 10 of the experiment, and the lipid levels in the plasma were determined. Radioactive tracers were administered orally to the animals on day 9 of the experiment to determine the cholesterol absorption in analocy to the method described by Zilversmith et al. On day 11 of the experiment, the animals were sacrificed, and the animals' livers were removed for cholesterol analysis and preparation of microsomes. The 7α-hydroxylase activity was determined in the liver microsomes ex vivo by a modified method of Hylemon et al. [table] • K00004513 employed as stock solution (1 mg/ml in EtOH) • Substances are dissolved in 2% EtOH in a final concentration of 5%. • The solutions are then suspended with 0.4% potato starch. • Administration takes place 1× in the morning with 10 ml/kg Feed: Teklad 8604M CH: 032201 M Experimental animals: Male Syrian hamsters (Mesocricetus auratus) supplied by Harlan 100–120 g at the start of adaptation Measured Parameters: • Feed consumption • Animal weight (weekly) • Liver weight • Safety parameters (CH; TG; ALAT/ASAT; AP; HDULDL) • Liver cholesterol (HPLC)=1×500 mg in EtOH/KOH • CYP7 activity (liver microsomes as group pool of 0.5 g each—preparation on day of experiment) • Feces collected on day 5–7 for bile acid determination

In the case of `CCCC[C@]1(CC)CS(=O)(=O)c2ccc(N(C)C)cc2[C@@H](c2cccc(NC(=O)CCCCNC[C@H](O)[C@@H](O)[C@H](O)[C@H](O)CO)c2)[C@H]1O` [V1], the “Plasma Cholesterol %” value (0.1 mg/kg/d oral) was 120%, the “Plasma Triglycerides %” value (0.1 mg/kg/d oral) was 115% and the “Plasma Cholesterol” value (0.1 mg/kg/d oral) was 4.20 mmol/L. For the same compound, the “Plasma LDL” value (0.1 mg/kg/d oral) was 1.06 mmol/L, the “Plasma Triglycerides” value (0.1 mg/kg/d oral) was 1.87 mmol/L and the “Plasma Cholesterol %” value (0.3 mg/kg/d oral) was 114%. For the same compound, the “Plasma Triglycerides %” value (0.3 mg/kg/d oral) was 108%, the “Plasma Cholesterol” value (0.3 mg/kg/d oral) was 4.01 mmol/L and the “Plasma LDL” value (0.3 mg/kg/d oral) was 1.18 mmol/L. For the same compound, the “Plasma Triglycerides” value (0.3 mg/kg/d oral) was 1.75 mmol/L, the “Plasma Cholesterol %” value (1 mg/kg/d oral) was 92% and the “Plasma Triglycerides %” value (1 mg/kg/d oral) was 124%. For the same compound, the “Plasma Cholesterol” value (1 mg/kg/d oral) was 3.23 mmol/L, the “Plasma LDL” value (1 mg/kg/d oral) was 0.92 mmol/L and the “Plasma Triglycerides” value (1 mg/kg/d oral) was 2.02 mmol/L.
For `O=C1[C@H](CC[C@H](O)c2ccc(F)cc2)[C@@H](c2ccc(O)cc2)N1c1ccc(F)cc1` [Ezetimibe, ezetimibe, reference compound], the “Plasma Cholesterol %” value (0.1 mg/kg/d oral) was 98%, the “Plasma Triglycerides %” value (0.1 mg/kg/d oral) was 100% and the “Plasma Cholesterol” value (0.1 mg/kg/d oral) was 3.44 mmol/L. For the same compound, the “Plasma LDL” value (0.1 mg/kg/d oral) was 1.04 mmol/L and the “Plasma Triglycerides” value (0.1 mg/kg/d oral) was 1.63 mmol/L.
